Consider one compound from patent publication US20110173718A1, “HERBICIDE TOLERANT PLANTS” (SYNGENTA CROP PROTECTION, INC., priority 2008, published 2011).

The structures appear in SMILES notation. “And” between values parts separate entries of the source, which are not always exact repeats. Equal entries are not always repeated.

The subject of assay [1] is Arabidopsis HST transgenic tobacco plants. As to the kind of experiment: Glasshouse spray test, Arabidopsis HST transgenic tobacco. Format: in vivo. As to conditions: for Damage % 5 DAT / Damage % 10 DAT: 10 g/ha, individual T0 lines. An excerpt:
For example the Arabidopsis HST SEQ ID # 11 is cloned behind a double 35s CMV promoter sequence and a TMV translational enhancer sequence and in front of the 3′ terminator from the nos gene. This expression cassette is ligated into pMJB1 (described in WO98/20144) and then into pBIN19 and then transformed into Agrobacterium tuniqfaciens strains LBA4404 prior to plant transformation.
For example, the full length Arabidopsis HST seq ID # 11 is fused to the TMV translational enhancer sequence (SEQ ID #33) by overlapping PCR and, at the same time, 5′ XhoI site and a 3′KpnI site are added by PCR. Site-directed mutagenesis is performed to remove an internal XhoI site. The TMV/HPPD fusion is removed from the pBIN19 by digestion with XhoI/KpnI and is replaced by the TMV/HST fusion (SEQ ID #34). The TMV/HST fusion is now cloned behind a double 35s promoter and in front of the 3′ terminator from the nos gene. Again the modified pBIN19 vector (‘pBinAT HST’) is then transformed into Agrobacterium tumefaciens strain LBA4404.
A master plate of Agrobacterium tumefaciens containing the binary vector pBinAT HST (described above) or analogous binary vector comprising a different HST is used to inoculate 10 ml LB containing 100 mg/1 Rifampicin plus 50 mg/1 Kanamycin using a single bacterial colony. This is incubated overnight at 28° C. shaking at 200 rpm. This entire overnight culture is used to inoculate a 50 ml volume of LA (plus antibiotics). Again this is cultured overnight at 28° C. shaking at 200 rpm. The Agrobacterium cells are pelleted by centrifuging at 3000 rpm for 15 minutes then resuspended in MS medium with 30 g/1 sucrose, pH 5.9 to an OD ([…])=0.6. This suspension is dispensed in 25 ml aliquots into petri dishes.
Clonal micro-propagated tobacco shoot cultures are used to excise young (not yet fully expanded) leaves. The mid rib and outer leaf margins are removed and discarded, the remaining lamina is cut into 1 cm squares. These are transferred to the Agrobacterium suspension for 20 minutes. Explants are then removed, dabbed on sterile filter paper to remove excess suspension then transferred to NBM medium (MS medium, 30 g/1 sucrose, 1 mg/1 BAP, 0.1 mg/1 NAA, pH 5.9, solidified with 8 g/1 Plantagar), with the abaxial surface of each explant in contact with the medium. Approximately 7 explants are transferred per plate, which are then sealed then maintained in a lit incubator at 25° C., 16 hour photoperiod for 3 days.
Explants are then transferred to NBM medium containing 100 mg/1 Kanamycin plus antibiotics to prevent further growth of Agrobacterium (200 mg/1 timentin with 250 mg/1 carbenicillin). Further subculture on to this same medium is then performed every 2 weeks.
As shoots start to regenerate from the callusing leaf explants these are removed to Shoot elongation medium (MS medium, 30 g/1 sucrose, 8 g/1 Plantagar, 100 mg/1 Kanamycin, 200 mg/1 timentin, 250 mg/1 carbenicillin, pH 5.9). Stable transgenic plants readily root within 2 weeks. To provide multiple plants per event to ultimately allow more than one herbicide test per transgenic plant all rooting shoots are micropropagated to generate 3 or more rooted clones.
Putative transgenic plants that are rooting and show vigorous shoot growth on the medium incorporating Kanamycin are analysed by PCR using primers that amplified a 500 bp fragment within the Arabidopsis HST transgene.
Rooted transgenic T0 plantlets are transferred from agar and potted into 50% peat, 50% John Innes soil no 3 or, for example, MetroMix® 380 soil (Sun Gro Horticulture, Bellevue, Wash.) with slow-release fertilizer in 3 inch round or 4 inch square pots and left regularly watered to establish for 8-12 d in the glass house. Glass house conditions are about 24-27° C. day; 18-21° C. night and approximately a 14 h (or longer in UK summer) photoperiod. Humidity is ˜65% and light levels up to 2000 μmol/m^2 at bench level. […]

Assay [2] deals with tobacco (var Samsun) plantlets on liquid culture medium. Nature of the assay: HST + HPPD herbicide effects on tobacco seedlings on liquid culture medium. Format: in vivo. As to conditions: for % Injury (bleaching), mesotrione by itself: 0.75% v/v DMSO, liquid culture, 20 DAT. The protocol:
In an alternative herbicide test procedure tobacco (var Samsun) plantlets germinated aseptically in agar made up in 1/3 strength Murashige and Skoog salts medium are transferred after 4 d to float on top of 2.9 ml of sterile liquid culture medium (half strength Murashige and Skoog medium containing 30 mM sucrose) in wells of 12 well plates. Test compounds are added at various doses and bleaching damage is assessed after 14-20 DAT. The plantlets are kept covered under clear perspex and grown at 18° C. (night) and 24° C. (day) under a 1611 day (˜500-900 umol/m^2), 8 h darkness regime Plantlets continue to grow and produce new tissue over the 14-20 DAT period but are bleached and grow less in the presence of controlling concentrations of herbicide.

Take `CS(=O)(=O)c1ccc(C(=O)C2C(=O)CCCC2=O)c([N+](=O)[O-])c1` [Mesotrione, mesotrione, reference compound]: the “Damage % 5 DAT” value in assay [1] (T0 line 332) came to 30%; in assay [1] (T0 line 351), 50%; in assay [1] (T0 line 367) it was 25%; in assay [1] (T0 line 404) it was 45%; in assay [1] (T0 line 426) it was 45%. Also, the “Damage % 10 DAT” value in assay [1] (T0 line 332) is recorded as 10%; in assay [1] (T0 line 351), 25%; in assay [1] (T0 line 367), 10%; in assay [1] (T0 line 404) it was 20%; in assay [1] (T0 line 426), 20%. In addition, the “ht (herbicidal damage)” value in assay [1] (Arabidopsis HST T0 tobacco events (one value per event), 15 g/ha of mesotrione, 21 DAT) was 80 and 90 and 85 and 70 and 75. In addition, the “damage by mesotrione alone” value in assay [2] (lower dose of mesotrione used in the mixtures) is given as “no visible damage”. Besides, the “% Injury (bleaching), mesotrione by itself” value in assay [2] (mesotrione 0.0005 ppm) is 0%; in assay [2] (mesotrione 0.001 ppm) it was 20%. The “% bleaching, mesotrione by itself” value in assay [2] (mesotrione 0.001 ppm, 0.75% DMSO, liquid culture medium, 14 DAT) was 5%.
